In US12673918B2, “Small molecule RPN13 inhibitors with antitumor properties” (The Johns Hopkins University, priority 2019, dated 2026):
Like-named read-outs stand apart in the source and are kept apart here.

What was measured:
[1] = test system: ES2; experiment: MTT cytotoxicity assay, ES2; settings: read-out: cytotoxicity IC50 ES2; Tables 3A/4B/4C; MTT assay
[2] = test system: DLD1; experiment: MTT cytotoxicity assay, DLD1; settings: Homo sapiens, DLD-1, read-out: cytotoxicity IC50 DLD1
Experimental: (§3) Cell lines and cytotoxicity assays: All cell lines were obtained from the American Type Culture Collection (ATCC) and cultured in the specified medium supplemented with 10% fetal bovine serum, 100 IU/mL penicillin, and 100 μg/mL streptomycin at 37° C. in a humidified 5% CO2/95% air incubator. […] To assess drug cytotoxicity, cells were seeded at 2,500 cells/well (10,000 cells/well for MM lines) in 100 μL medium in 96-well plate and after 24 treated with compounds for 72 h, incubated according to the manufacturer's protocol with the Thiazolyl Blue Tetrazolium Bromide (Sigma, M2128) and A570 measured using a Benchmark Plus microplate spectrophotometer (BIO-RAD). IC50 data was analyzed by Graphpad Prism software. In the chirality studies the cells were treated with compounds for 48 h, and the cells were incubated and measured via the preceeding protocols.

[3] = test system: MCF7; experiment: MTT cytotoxicity assay, MCF7; settings: read-out: cytotoxicity IC50 MCF7, Tables 3A/4B/4C
[4] = test system: SKOV3; experiment: MTT cytotoxicity assay, SKOV3
Experimental: Cell lines and cytotoxicity assays: All cell lines were obtained from the American Type Culture Collection (ATCC) and cultured in the specified medium supplemented with 10% fetal bovine serum, 100 IU/mL penicillin, and 100 μg/mL streptomycin at 37° C. in a humidified 5% CO2/95% air incubator. […] To assess drug cytotoxicity, cells were seeded at 2,500 cells/well (10,000 cells/well for MM lines) in 100 μL medium in 96-well plate and after 24 treated with compounds for 72 h, incubated according to the manufacturer's protocol with the Thiazolyl Blue Tetrazolium Bromide (Sigma, M2128) and A570 measured using a Benchmark Plus microplate spectrophotometer (BIO-RAD). IC50 data was analyzed by Graphpad Prism software.

[5] = test system: OVCAR3; experiment: MTT cytotoxicity assay, OVCAR3; settings: read-out: cytotoxicity IC50 OVCAR3; Tables 3A/4B/4C; MTT assay
[6] = test system: HCC1395; experiment: MTT cytotoxicity assay, HCC1395; settings: Homo sapiens, HCC1395, read-out: cytotoxicity IC50 HCC1395
[7] = test system: ID8-vegf; experiment: MTT cytotoxicity assay, ID8-vegf; settings: read-out: cytotoxicity IC50 ID8-vegf, Tables 3A/4B/4C
[8] = test system: DLD-BRCA2-Ve; experiment: MTT cytotoxicity assay, DLD-BRCA2-Ve; settings: read-out: cytotoxicity IC50 DLD-BRCA2-Ve
Experimental: as §3

[9] = test system: HeLa; experiment: MTT cytotoxicity assay, HeLa; settings: read-out: cytotoxicity IC50 HeLa, Tables 3A/4B/4C
[10] = test system: BR5-Luc; experiment: MTT cytotoxicity assay, BR5-Luc; settings: read-out: cytotoxicity IC50 BR5-Luc, Tables 3A/4B/4C, BRCA2 − VE
[11] = test system: BR5-FvB1; experiment: MTT cytotoxicity assay, BR5-FvB1; settings: Mus musculus, read-out: cytotoxicity IC50 BR5-FvB1
Experimental: as §3

[12] = test system: HeLa cells; experiment: XTT cytotoxicity assay, HeLa; assay type: cell-based, human
Excerpt: (§1) The impact of substituents of the aromatic ring on the potency of molecules was also examined. The presence of either an electron withdrawing group (EWG) or an electron donating group (EDG) influences the reactivity of a Michael acceptor towards the target protein but can also impact specificity/selectivity.

[13] = test system: high molecular weight polyubiquitinated proteins; experiment: Western blot of polyubiquitinated proteins, ES2 cells; assay type: cell-based, human; settings: 1 μM, 4 hr
Experimental: FIG. 1C illustrates ES2 cells treated with compounds (1 μM, 4 hr), lysed and the samples probed with ubiquitin or actin-specific antibody by Western blot analysis.
Antibodies, reagents, and Western Blot Analyses: Cell lysate (10-20 μg total protein) prepared in MPER (Pierce) from each sample was subjected to SDS-PAGE, transferred to PVDF membranes and analyzed by Western blot using antibodies specific Bax (#2772, Cell Signaling), ubiquitin (P4D1, sc-8017, Santa Cruz), PARP (#9542, BD Pharmingen), actin (#66009, Protein Tech Group), Tubulin(#66031, Protein Tech Group), ADRM1/Rpn13 (D9Z1U, #12019, Cell Signaling), Lys48-linkled ubiquitin (Apu 2, 05-1307, (Millipore), Annexin V (#559763, BD pharmingen), caspase-3 (51-68655X, BD Pharmingen) at the dilutions recommended by the manufacturers, and for secondary antibodies either peroxidase-linked anti-mouse IgG or anti-rabbit IgG (GE Healthcare UK Ltd) were utilized, HRP conjugated streptavidin (N100, Thermo Fisher) at the recommended dilution (1:5000). MitoTracker Red CMXRos reagent was purchased from ThermoFisher #M7512. The blots were developed using HyGLO chemiluminescent detection reagent (Denville).

[14] = molecular target: RPN13 (Homo sapiens, UniProt Q16186); experiment: Competition with RA190B labeling of 42 kDa cellular target in cell lysate; assay type: binding; set-up: endogenous in cells; running text says HeLa) and OV2008 cell lysates; settings: cell lysate pre-incubated with compounds (20 μM), then RA190B; HRP-streptavidin blot
Experimental: (§2) FIG. 1B illustrates precleared ES2 cell lysate incubated with compounds (20 μM) or vehicle (DMSO, 1:100) for 45 min and then with RA190B (5 μM) for 45 min at 4° C. by Western blot analysis. Samples were subjected to SDS-PAGE, transfer to PVDF membrane, and after probing with HRP-streptavidin, binding was detected using chemiluminescence.
as §2, with “2B” for “1B”, “OV2008” for “ES2”, “(10” for “(5”, “binding of” for “after probing with”, “HRP-streptavidin,” for “HRP-streptavidin, binding was”
Biotinylated RA190 (RA190B, FIG. 1A) is utilized as a probe to detect covalent binding to its cellular target(s) in detergent lysates of cancer cell lines (10). […] Here, the ability of compounds (FIG. 1A) to compete with RA190B binding to its 42 kDa cellular target (FIG. 1B) were examined. Compounds, including bortezomib as a negative control, were incubated with HeLa cell lysate and then RA190B added.
Biotin labeling Assay: Clarified cell lysate in MPER buffer was pretreated with streptavidin magna beads for 45 min at 4° C. to deplete non-specific biotinylated proteins in the cell lysate. The beads were separated and 40 μL of the pre-cleared cell lysate was incubated with compounds (20 μM) for 45 min at 4° C., and then treated with RA183B, RA190B, or RA413SB (10 μM) for 45 min at 4° C. Next, the samples were mixed with Laemmli sample buffer (BioRad) and boiled for 5 min. […] (24 V). The membrane was blocked with 5% BSA in PBST for 1 hr at RT and washed for 20 minutes (3× with PBST). Then the membrane was probed with HRP-streptavidin (1:10,000 in PBST) for 1 hr at RT, washed for 30 min (3× with PBST), and developed using HyGLO chemiluminescent detection reagent (Denville) for biotin detection.

[15] = MTT cytotoxicity assay, RPE1; settings: human, RPE1 cells
Experimental: as §3

[16] = test system: VU93; experiment: MTT cytotoxicity assay, VU93; settings: read-out: cytotoxicity IC50 VU93, Tables 3A/4B/4C
[17] = test system: C2KmFvB1; experiment: MTT cytotoxicity assay, C2KmFvB1; settings: read-out: cytotoxicity IC50 C2KmFvB1, Tables 3A/4B/4C, BRCA2 + Ve
[18] = test system: DLD-Seckle; experiment: MTT cytotoxicity assay, DLD-Seckle; settings: read-out: cytotoxicity IC50 DLD-Seckle
Experimental: as §3

[19] = test system: RPE1-ATMKO; experiment: MTT cytotoxicity assay, RPE1-ATMKO; settings: read-out: cytotoxicity IC50 RPE1-ATMKO
Experimental: as §3

[20] = test system: SKOV3 cells; experiment: XTT cytotoxicity assay, SKOV3; assay type: cell-based, human
Excerpt: as §1

[21] = test system: HeLa; settings: human
[22] = test system: SSC90; settings: human
[23] = test system: VU93
[24] = test system: FaDu; experiment: cells; settings: Homo sapiens, read-out: cytotoxicity IC50 FaDu
[25] = test system: TOV21G; experiment: MTT cytotoxicity assay, TOV21G; settings: read-out: cytotoxicity IC50 TOV21G; Tables 3A/4B/4C; MTT assay
[26] = test system: OV2008; experiment: MTT cytotoxicity assay, OV2008; settings: read-out: cytotoxicity IC50 OV2008
Experimental: as §3

[27] = Homo sapiens, SK-OV-3, read-out: cytotoxicity IC50 SKOV3
[28] = Table 1, XTT assay, read-out: IC50 HeLa
[29] = Table 1, XTT assay, read-out: IC50 SKOV3

RPN13, sequence (Q16186 whole entry): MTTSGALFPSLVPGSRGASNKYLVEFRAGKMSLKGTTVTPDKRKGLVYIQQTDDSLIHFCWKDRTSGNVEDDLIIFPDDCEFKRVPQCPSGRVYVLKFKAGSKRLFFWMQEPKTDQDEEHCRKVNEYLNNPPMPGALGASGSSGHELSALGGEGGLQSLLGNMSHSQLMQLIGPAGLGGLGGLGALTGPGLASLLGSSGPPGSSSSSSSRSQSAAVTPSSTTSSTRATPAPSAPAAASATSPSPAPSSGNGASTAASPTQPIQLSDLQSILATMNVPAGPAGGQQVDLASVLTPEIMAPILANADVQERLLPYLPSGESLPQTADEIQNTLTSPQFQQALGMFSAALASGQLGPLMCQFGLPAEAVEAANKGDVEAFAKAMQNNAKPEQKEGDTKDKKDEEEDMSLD

## CC1/C(=C\c2ccccc2F)C(=O)/C(=C/c2ccccc2F)CN1C(=O)[C@@H](N)Cc1ccccc1 (mixture of isomers) [RA467]
[1]
  IC50: 112 nM
[2]
  IC50: 474 nM
[3]
  IC50: 750 nM
[4]; [27]
  IC50: 126 nM
[5]
  IC50: 120 nM
[6]
  IC50: 250 nM
[7]
  IC50: 167 nM
[8]
  IC50: 502 nM

## CC1NCC(=Cc2ccc([N+](=O)[O-])cc2)C(=O)C1=Cc1ccc([N+](=O)[O-])cc1 (racemic) [RA411]
[9]
  IC50: 16 nM
[4]; read-out: cytotoxicity IC50 SKOV3, Tables 3A/4B/4C, MTT assay
  IC50: 257 nM

## CC1/C(=C\c2ccc(F)cc2)C(=O)/C(=C/c2ccc(F)cc2)CN1C(=O)[C@@H](N)Cc1ccccc1 (mixture of isomers) [RA462]
[1]
  IC50: 96 nM
[3]
  IC50: 750 nM
[4]; [27]
  IC50: 112 nM
[5]
  IC50: 105 nM
[6]
  IC50: 250 nM
[7]
  IC50: 123 nM

## COc1cccc2c1C(=O)c1c(O)c3c(c(O)c1C2=O)C[C@@](O)(C(=O)CO)C[C@@H]3O[C@H]1C[C@H](N)[C@H](O)[C@H](C)O1 [DOX, Doxorubicin]
[10]
  IC50: 237 nM
[11]
  IC50: < 20 nM

## CC1(C)CN(C(=O)[C@@H](N)Cc2ccccc2)C/C(=C\c2ccc(Cl)c(Cl)c2)C1=O [RA190H]
[12]; Homo sapiens, HeLa, Table 1, XTT assay, read-out: IC50 HeLa
  IC50: 562 nM
[12]; cytotoxicity, Table 1 cell lines (HeLa, SKOV3)
  fold decreased potency compared to RA190: 6 fold
[13]
  accumulation of high molecular weight polyubiquitinated proteins: only weakly caused an accumulation of high molecular weight polyubiquitinated proteins
[14]
  competition with RA190B binding to 42 kDa cellular target: competed labeling by RA190B to a greater extent

## O=C(c1cc(Cc2n[nH]c(=O)c3ccccc23)ccc1F)N1CCN(C(=O)C2CC2)CC1 [OLA, olaparib, reference compound]
[2]
  IC50: 23000 nM
[15]
  IC50: 23200 nM
[16]
  IC50: 30 nM
[10]
  IC50: 500 nM
[6]
  IC50: 750 nM
[11]
  IC50: 30 nM
[17]
  IC50: 7960 nM
[18]
  IC50: 1.7 nM
[19]
  IC50: 2.6 nM
[8]
  IC50: 2.5 nM

## Cl.NC(Cc1ccccc1)C(=O)N1CC(=CC=Cc2ccccc2)C(=O)C(=CC=Cc2ccccc2)C1 (centres unmarked) [RA181C]
[12]; [28]
  IC50: > 2500 nM
[20]; [29]
  IC50: > 2500 nM
[13]
  accumulation of high molecular weight polyubiquitinated proteins: only minimal accumulation of polyubiquitinated proteins
[14]
  competition with RA190B binding to 42 kDa cellular target: failed to compete binding by RA190B

## Cl.NC(Cc1ccccc1)C(=O)N1C2CCC1C(=Cc1ccc(Cl)c(Cl)c1)C(=O)C2=Cc1ccc(Cl)c(Cl)c1 (centres unmarked) [RA338]
[12]; Table 2, read-out: IC50 HeLa (bridge compounds)
  IC50: 66 nM
[20]; Table 2, read-out: IC50 SKOV3 (bridge compounds)
  IC50: 81 nM
[13]
  accumulation of high molecular weight polyubiquitinated proteins: rapid accumulation of high molecular weight polyubiquitinated proteins
[14]
  competition with RA190B binding to 42 kDa cellular target: competed labeling by RA190B to a greater extent

## Cl.NC(Cc1ccccc1)C(=O)N1CC(=Cc2ccccc2)C(=O)C(=Cc2ccccc2)C1 (centres unmarked) [RA181]
[12]; [28]
  IC50: 63 nM
[20]; [29]
  IC50: 89 nM
[13]
  accumulation of high molecular weight polyubiquitinated proteins: rapid accumulation of high molecular weight polyubiquitinated proteins
[14]
  competition with RA190B binding to 42 kDa cellular target: competed labeling by RA190B to a greater extent

## CC[C@]1(O)C[C@H]2CN(CCc3c([nH]c4ccccc34)[C@@](C(=O)OC)(c3cc4c(cc3OC)N(C=O)[C@H]3[C@@](O)(C(=O)OC)[C@H](OC(C)=O)[C@]5(CC)C=CCN6CC[C@]43[C@@H]65)C2)C1 [Vin, Vincristine]
[17]
  IC50: 13.4 nM

## CC1/C(=C\c2ccc([N+](=O)[O-])cc2)C(=O)/C(=C/c2ccc([N+](=O)[O-])cc2)CN1C(=O)[C@@H](N)Cc1ccccc1 (mixture of isomers) [RA413]
[21]
  IC50: 96 nM
[22]
  IC50: 312 nM
[23]
  IC50: 625 nM
[24]
  IC50: 300 nM
[4]; [27]
  IC50: 86 nM
[25]
  IC50: 42 nM
[26]
  IC50: 150 nM
[7]
  IC50: 192 nM
